Tested on: human dermal fibroblast cells
Assay: Cytotoxicity test of chitosan derivates in vitro (MTT)
Format: cell-based
Settings: 48 hours after treatment
Method: 1×10^4 of human dermal fibroblast cells in 96 well plate were cultured in DMEM medium supplemented with 100 μl of 10% serum. Then, the cultured cells were treated with 5, 50, and 500 ng/ml of chitosan oligomer, CM-chitin and 3,6-S-chitin, respectively. 48 hours after treatment, MTT (3-[4,5-dimethylthiazol-2-yl]-2,5-diphenyltetrazolium bromide; Thiazolyl blue, Sigma Product No. M5655) was added thereto and then, the mixture was allowed to stand for 4 hours. After removal of the culture medium, the resultant mixture was washed with phosphate buffered saline 2-3 times and 100 μl of DMSO (dimethylsulfoxide) was added thereto. After chromogenesis, an absorbance was measured at 545 nm on each well using ELISA reader.

Substance	Viability Assay Result Of Human Dermal Fibroblasts (MTT absorbance at 545 nm) (5 ng/ml)	Viability Assay Result Of Human Dermal Fibroblasts (MTT absorbance at 545 nm) (50 ng/ml)	Viability Assay Result Of Human Dermal Fibroblasts (MTT absorbance at 545 nm) (500 ng/ml)
CM-chitin	0.603	0.630	0.603
3,6-S-chitin	0.608	0.727	0.595
chitosan oligomer	0.629	0.618	0.733
